Measured values from the OligoGym collection.
HELM strings list units from the 5' end as sugar, base in round brackets, then linkage (d deoxyribose, r ribose, m 2'-O-methyl, p phosphodiester). Strings are as the collection lists them; they lack the last nucleoside at the 3' end of the tested compound. [moe] = 2'-O-(2-methoxyethyl) (MOE); [sp] = phosphorothioate linkage; [m5C] = 5-methylcytosine

Target: UBE3A-ATS
Experiment: mouse, dose not given
Details: ASO

Substance	3 h FOB score [score 0-7]
RNA1{[moe]([m5C])[sp].[moe](A)p.[moe]([m5C])p.[moe](T)p.[moe]([m5C])p.d(T)[sp].d(A)[sp].d(T)[sp].d(A)[sp].d(G)[sp].d(G)[sp].d(T)[sp].d(T)[sp].d([m5C])[sp].d(A)[sp].[moe](A)p.[moe](G)p.[moe]([m5C])[sp].[moe](A)}$$$$ (last 3' nucleoside missing)	4
RNA1{[moe](A)[sp].[moe](G)p.[moe](A)p.[moe](G)p.[moe](T)p.d(A)[sp].d(G)[sp].d(T)[sp].d([m5C])[sp].d(T)[sp].d(A)[sp].d(T)[sp].d(T)[sp].d(G)[sp].d(G)[sp].[moe](T)p.[moe](G)p.[moe](T)[sp].[moe](T)}$$$$ (last 3' nucleoside missing)	3.8
RNA1{[moe](T)[sp].[moe]([m5C])p.[moe]([m5C])p.[moe]([m5C])p.[moe](A)p.d(T)[sp].d([m5C])[sp].d(A)[sp].d(T)[sp].d([m5C])[sp].d(A)[sp].d(G)[sp].d(T)[sp].d(G)[sp].d(T)[sp].[moe](G)p.[moe](T)p.[moe](G)[sp].[moe]([m5C])}$$$$ (last 3' nucleoside missing)	3.25
RNA1{[moe](A)[sp].[moe](G)p.[moe](A)p.[moe](G)p.[moe](G)p.d([m5C])[sp].d([m5C])[sp].d([m5C])[sp].d(T)[sp].d([m5C])[sp].d(T)[sp].d(T)[sp].d(G)[sp].d(T)[sp].d(T)[sp].[moe](T)p.[moe]([m5C])p.[moe](A)[sp].[moe](A)}$$$$ (last 3' nucleoside missing)	1.8
RNA1{[moe](A)[sp].[moe]([m5C])p.[moe](T)p.[moe](T)p.[moe](T)p.d([m5C])[sp].d(A)[sp].d(T)[sp].d([m5C])[sp].d(A)[sp].d(G)[sp].d(T)[sp].d(T)[sp].d(A)[sp].d(G)[sp].[moe](T)p.[moe]([m5C])p.[moe](A)[sp].[moe](G)}$$$$ (last 3' nucleoside missing)	5.2
RNA1{[moe](G)[sp].[moe](A)p.[moe](A)p.[moe]([m5C])p.[moe](T)p.d(A)[sp].d(T)[sp].d([m5C])[sp].d([m5C])[sp].d(T)[sp].d(G)[sp].d([m5C])[sp].d(A)[sp].d(T)[sp].d([m5C])[sp].[moe]([m5C])p.[moe](G)p.[moe](A)[sp].[moe](G)}$$$$ (last 3' nucleoside missing)	4.2
RNA1{[moe](T)[sp].[moe](G)p.[moe]([m5C])p.[moe](A)p.[moe](T)p.[moe](A)p.d([m5C])[sp].d([m5C])[sp].d([m5C])[sp].d(A)[sp].d(G)[sp].d(G)[sp].d(G)[sp].d(T)[sp].d(A)[sp].d(G)[sp].[moe](G)p.[moe](A)[sp].[moe](T)}$$$$ (last 3' nucleoside missing)	4
RNA1{[moe](A)[sp].[moe]([m5C])p.[moe](T)p.[moe](T)p.[moe](T)p.d(A)[sp].d(T)[sp].d(A)[sp].d(G)[sp].d(T)[sp].d(G)[sp].d(T)[sp].d(G)[sp].d(G)[sp].d(A)[sp].[moe](T)p.[moe](G)p.[moe](G)[sp].[moe](T)}$$$$ (last 3' nucleoside missing)	6.8
RNA1{[moe](G)[sp].[moe](G)p.[moe](T)p.[moe]([m5C])[sp].d(A)[sp].d(T)[sp].d([m5C])[sp].d(T)[sp].d([m5C])[sp].d(G)[sp].d(G)[sp].d(G)[sp].[moe](T)p.[moe](A)p.[moe](T)p.[moe](A)[sp].[moe](T)}$$$$ (last 3' nucleoside missing)	6.3
RNA1{[moe](A)[sp].[moe](G)p.[moe](G)p.[moe](T)p.[moe]([m5C])p.[moe](A)p.d(A)[sp].d([m5C])[sp].d([m5C])[sp].d(A)[sp].d(A)[sp].d(T)[sp].d(T)[sp].d(T)[sp].d(G)[sp].d([m5C])[sp].[moe](T)p.[moe](A)[sp].[moe](T)}$$$$ (last 3' nucleoside missing)	5.3
RNA1{[moe](T)[sp].[moe](T)p.[moe](T)p.[moe](A)p.[moe](T)p.d(A)[sp].d(G)[sp].d(G)[sp].d(G)[sp].d(T)[sp].d(G)[sp].d(G)[sp].d(T)[sp].d(T)[sp].d(G)[sp].[moe](G)p.[moe](T)p.[moe](T)[sp].[moe]([m5C])}$$$$ (last 3' nucleoside missing)	6
RNA1{[moe](T)[sp].[moe]([m5C])p.[moe](A)p.[moe](G)p.d(T)[sp].d(T)[sp].d(A)[sp].d(G)[sp].d(G)[sp].d(T)[sp].d(T)[sp].d(A)[sp].d(G)[sp].d(T)[sp].[moe](G)p.[moe]([m5C])p.[moe](A)p.[moe]([m5C])[sp].[moe](A)}$$$$ (last 3' nucleoside missing)	4
RNA1{[moe](A)[sp].[moe]([m5C])p.[moe](T)p.[moe](A)p.[moe](T)p.d([m5C])[sp].d([m5C])[sp].d(T)[sp].d(G)[sp].d([m5C])[sp].d(A)[sp].d(T)[sp].d([m5C])[sp].d([m5C])[sp].d(G)[sp].[moe](A)p.[moe](G)p.[moe](G)[sp].[moe]([m5C])}$$$$ (last 3' nucleoside missing)	1
RNA1{[moe](G)[sp].[moe](A)p.[moe](A)p.[moe](A)p.[moe]([m5C])p.d([m5C])[sp].d(A)[sp].d(G)[sp].d([m5C])[sp].d([m5C])[sp].d(A)[sp].d(G)[sp].d(G)[sp].d(T)[sp].d(G)[sp].[moe](T)p.[moe]([m5C])p.[moe](T)[sp].[moe](T)}$$$$ (last 3' nucleoside missing)	3
RNA1{[moe]([m5C])[sp].[moe](T)p.[moe](G)p.[moe]([m5C])p.[moe](T)p.[moe](T)p.d([m5C])[sp].d(A)[sp].d([m5C])[sp].d([m5C])[sp].d(A)[sp].d(T)[sp].d(T)[sp].d(T)[sp].d(T)[sp].d(G)[sp].[moe](A)p.[moe]([m5C])[sp].[moe]([m5C])}$$$$ (last 3' nucleoside missing)	0
RNA1{[moe]([m5C])[sp].[moe](T)p.[moe](A)p.[moe](G)p.[moe](G)p.d([m5C])[sp].d(A)[sp].d(G)[sp].d([m5C])[sp].d(T)[sp].d([m5C])[sp].d(T)[sp].d(T)[sp].d(T)[sp].d(G)[sp].[moe](T)p.[moe](A)p.[moe](G)[sp].[moe](G)}$$$$ (last 3' nucleoside missing)	0.3
RNA1{[moe](G)[sp].[moe](T)p.[moe](G)p.[moe]([m5C])p.[moe](A)p.[moe](T)[sp].d(A)[sp].d([m5C])[sp].d([m5C])[sp].d([m5C])[sp].d(A)[sp].d(G)[sp].d(G)[sp].d(G)[sp].[moe](T)p.[moe](A)[sp].[moe](G)}$$$$ (last 3' nucleoside missing)	4
RNA1{[moe]([m5C])[sp].[moe](A)p.[moe](G)p.[moe](T)p.[moe](T)p.d(T)[sp].d(T)[sp].d([m5C])[sp].d(G)[sp].d([m5C])[sp].d([m5C])[sp].d([m5C])[sp].d(G)[sp].d(T)[sp].d(T)[sp].[moe](A)p.[moe]([m5C])p.[moe]([m5C])[sp].[moe](T)}$$$$ (last 3' nucleoside missing)	5
RNA1{[moe](A)[sp].[moe](G)p.[moe](G)p.[moe]([m5C])p.[moe](A)p.d(A)[sp].d(T)[sp].d(G)[sp].d(G)[sp].d(A)[sp].d([m5C])[sp].d(T)[sp].d(T)[sp].d(A)[sp].d(G)[sp].[moe](T)p.[moe](A)p.[moe]([m5C])[sp].[moe](A)}$$$$ (last 3' nucleoside missing)	4
